Experiments:
Experiment in all cases: Standardized radiometric kinase assays, percentage of activity at 0.5 μM;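 further: Read-out is ³³P-labelled substrate protein phosphorylated by each kinase, captured on filters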
[1] = target: each individual kinase of the panel (Homo sapiens, UniProt O14920)
[2] = target: each individual kinase of the panel (Homo sapiens, UniProt O15146)
[3] = target: each individual kinase of the panel (Homo sapiens, UniProt O15264)
[4] = target: each individual kinase of the panel (Homo sapiens, UniProt P09769)
[5] = target: each individual kinase of the panel (Homo sapiens, UniProt P29320)
[6] = target: each individual kinase of the panel (Homo sapiens, UniProt P29323)
[7] = target: each individual kinase of the panel (Homo sapiens, UniProt P42685)
[8] = target: each individual kinase of the panel (Homo sapiens, UniProt P43405)
[9] = target: each individual kinase of the panel (Homo sapiens, UniProt P45983)
[10] = target: each individual kinase of the panel (Homo sapiens, UniProt P49840)
[11] = target: each individual kinase of the panel (Homo sapiens, UniProt P53779)
[12] = target: each individual kinase of the panel (Homo sapiens, UniProt P54762)
[13] = target: each individual kinase of the panel (Homo sapiens, UniProt Q00526)
[14] = target: each individual kinase of the panel (Homo sapiens, UniProt Q05513)
[15] = target: each individual kinase of the panel (Homo sapiens, UniProt Q13555)
[16] = target: each individual kinase of the panel (Homo sapiens, UniProt Q14289)
[17] = target: each individual kinase of the panel (Homo sapiens, UniProt Q5VT25)
[18] = target: each individual kinase of the panel (Homo sapiens, UniProt Q86Y07)
[19] = target: each individual kinase of the panel (Homo sapiens, UniProt Q86Z02)
[20] = target: each individual kinase of the panel (Homo sapiens, UniProt Q8N568)
[21] = target: each individual kinase of the panel (Homo sapiens, UniProt Q8NG66)
[22] = target: each individual kinase of the panel (Homo sapiens, UniProt Q8TDX7)
[23] = target: each individual kinase of the panel (Homo sapiens, UniProt Q96BR1)
[24] = target: each individual kinase of the panel (Homo sapiens, UniProt Q9H2G2)
[25] = target: each individual kinase of the panel (Homo sapiens, UniProt Q9HBY8)
[26] = target: each individual kinase of the panel (Homo sapiens, UniProt Q9HC98)
[27] = target: each individual kinase of the panel (Homo sapiens, UniProt Q9NQU5)
[28] = target: each individual kinase of the panel (Homo sapiens, UniProt Q9P0L2)
[29] = target: each individual kinase of the panel (Homo sapiens, UniProt Q9UPE1)
[30] = target: each individual kinase of the panel (Mus musculus, UniProt P47809)
[31] = target: each individual kinase of the panel (Mus musculus, UniProt P63085)
Sequence of each individual kinase of the panel (Mus musculus, UniProt P63085) (P63085 2-358 limits assumed): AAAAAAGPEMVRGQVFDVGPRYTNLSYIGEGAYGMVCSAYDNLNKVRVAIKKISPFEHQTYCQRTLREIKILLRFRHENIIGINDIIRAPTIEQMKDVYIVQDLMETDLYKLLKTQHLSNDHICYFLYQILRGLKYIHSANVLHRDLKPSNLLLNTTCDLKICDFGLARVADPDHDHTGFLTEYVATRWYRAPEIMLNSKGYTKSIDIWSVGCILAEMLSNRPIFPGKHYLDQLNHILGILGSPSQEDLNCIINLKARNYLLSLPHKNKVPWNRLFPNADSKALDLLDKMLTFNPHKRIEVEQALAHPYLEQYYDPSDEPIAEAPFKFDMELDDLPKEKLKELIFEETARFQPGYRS

Sequence of each individual kinase of the panel (Homo sapiens, UniProt P29323) (P29323 19-1055 limits assumed): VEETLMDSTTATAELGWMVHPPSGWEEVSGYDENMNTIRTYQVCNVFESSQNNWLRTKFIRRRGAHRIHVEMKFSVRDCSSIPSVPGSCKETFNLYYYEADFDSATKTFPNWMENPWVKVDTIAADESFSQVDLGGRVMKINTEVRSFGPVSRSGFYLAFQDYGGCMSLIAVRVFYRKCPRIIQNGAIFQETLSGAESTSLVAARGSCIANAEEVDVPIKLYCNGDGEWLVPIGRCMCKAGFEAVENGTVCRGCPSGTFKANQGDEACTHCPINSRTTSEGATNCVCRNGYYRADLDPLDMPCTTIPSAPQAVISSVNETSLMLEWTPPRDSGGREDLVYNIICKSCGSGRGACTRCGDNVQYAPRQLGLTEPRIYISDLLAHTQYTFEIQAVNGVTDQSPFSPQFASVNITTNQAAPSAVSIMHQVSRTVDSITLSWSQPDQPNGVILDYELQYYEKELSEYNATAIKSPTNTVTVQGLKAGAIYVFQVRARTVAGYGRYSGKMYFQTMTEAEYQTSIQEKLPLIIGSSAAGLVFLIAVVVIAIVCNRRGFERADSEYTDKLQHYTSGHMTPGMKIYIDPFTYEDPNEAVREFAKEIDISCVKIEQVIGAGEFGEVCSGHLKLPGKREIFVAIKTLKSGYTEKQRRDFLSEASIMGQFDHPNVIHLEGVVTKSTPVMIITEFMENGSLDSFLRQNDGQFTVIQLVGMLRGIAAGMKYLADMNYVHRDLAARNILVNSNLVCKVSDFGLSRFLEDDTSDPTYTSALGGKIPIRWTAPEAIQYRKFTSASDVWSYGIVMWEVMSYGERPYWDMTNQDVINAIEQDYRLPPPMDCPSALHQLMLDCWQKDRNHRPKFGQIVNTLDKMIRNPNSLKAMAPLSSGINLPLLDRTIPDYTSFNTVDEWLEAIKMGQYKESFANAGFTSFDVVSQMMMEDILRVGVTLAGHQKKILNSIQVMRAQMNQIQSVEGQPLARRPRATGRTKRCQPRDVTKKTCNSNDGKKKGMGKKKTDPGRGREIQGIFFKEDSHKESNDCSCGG
Sequence of each individual kinase of the panel (Homo sapiens, UniProt P49840) (P49840 2-483 limits assumed): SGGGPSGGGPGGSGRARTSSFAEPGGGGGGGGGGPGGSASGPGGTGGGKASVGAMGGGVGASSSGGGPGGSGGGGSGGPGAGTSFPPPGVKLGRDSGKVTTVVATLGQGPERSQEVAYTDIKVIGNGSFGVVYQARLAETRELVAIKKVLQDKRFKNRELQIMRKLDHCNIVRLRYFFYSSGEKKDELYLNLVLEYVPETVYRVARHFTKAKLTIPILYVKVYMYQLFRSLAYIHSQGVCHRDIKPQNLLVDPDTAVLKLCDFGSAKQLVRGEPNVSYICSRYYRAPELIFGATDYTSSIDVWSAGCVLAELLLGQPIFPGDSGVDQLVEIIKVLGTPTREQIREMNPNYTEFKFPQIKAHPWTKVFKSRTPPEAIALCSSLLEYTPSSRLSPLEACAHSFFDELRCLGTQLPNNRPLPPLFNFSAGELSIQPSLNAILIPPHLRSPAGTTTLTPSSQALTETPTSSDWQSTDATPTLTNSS
Sequence of each individual kinase of the panel (Homo sapiens, UniProt P29320) (P29320 21-983 limits assumed): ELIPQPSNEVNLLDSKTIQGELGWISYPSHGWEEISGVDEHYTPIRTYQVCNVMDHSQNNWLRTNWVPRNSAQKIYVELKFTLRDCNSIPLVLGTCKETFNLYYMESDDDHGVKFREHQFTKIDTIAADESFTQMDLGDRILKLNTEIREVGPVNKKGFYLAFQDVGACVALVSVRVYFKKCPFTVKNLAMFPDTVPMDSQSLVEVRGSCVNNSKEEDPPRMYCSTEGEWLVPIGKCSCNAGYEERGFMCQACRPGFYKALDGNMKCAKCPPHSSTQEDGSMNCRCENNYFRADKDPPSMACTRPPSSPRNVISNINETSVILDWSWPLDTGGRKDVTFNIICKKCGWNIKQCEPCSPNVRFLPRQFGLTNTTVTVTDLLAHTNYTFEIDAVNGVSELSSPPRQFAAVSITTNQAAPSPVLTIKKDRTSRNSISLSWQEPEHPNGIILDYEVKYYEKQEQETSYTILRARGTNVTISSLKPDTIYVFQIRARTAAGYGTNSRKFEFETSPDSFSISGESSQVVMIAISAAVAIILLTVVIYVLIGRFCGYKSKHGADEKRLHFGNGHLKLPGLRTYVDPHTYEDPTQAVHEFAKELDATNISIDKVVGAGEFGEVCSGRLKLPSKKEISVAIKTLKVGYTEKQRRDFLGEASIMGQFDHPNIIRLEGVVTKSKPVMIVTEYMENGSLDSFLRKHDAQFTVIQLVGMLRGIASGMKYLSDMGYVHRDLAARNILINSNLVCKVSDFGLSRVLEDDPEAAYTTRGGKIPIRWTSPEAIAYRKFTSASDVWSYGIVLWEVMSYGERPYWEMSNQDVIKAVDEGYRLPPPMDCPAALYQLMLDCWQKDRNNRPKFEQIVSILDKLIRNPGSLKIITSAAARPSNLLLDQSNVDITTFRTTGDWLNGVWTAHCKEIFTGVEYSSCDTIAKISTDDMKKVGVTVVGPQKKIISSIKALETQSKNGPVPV
Sequence of each individual kinase of the panel (Homo sapiens, UniProt P09769) (P09769 2-529 limits assumed): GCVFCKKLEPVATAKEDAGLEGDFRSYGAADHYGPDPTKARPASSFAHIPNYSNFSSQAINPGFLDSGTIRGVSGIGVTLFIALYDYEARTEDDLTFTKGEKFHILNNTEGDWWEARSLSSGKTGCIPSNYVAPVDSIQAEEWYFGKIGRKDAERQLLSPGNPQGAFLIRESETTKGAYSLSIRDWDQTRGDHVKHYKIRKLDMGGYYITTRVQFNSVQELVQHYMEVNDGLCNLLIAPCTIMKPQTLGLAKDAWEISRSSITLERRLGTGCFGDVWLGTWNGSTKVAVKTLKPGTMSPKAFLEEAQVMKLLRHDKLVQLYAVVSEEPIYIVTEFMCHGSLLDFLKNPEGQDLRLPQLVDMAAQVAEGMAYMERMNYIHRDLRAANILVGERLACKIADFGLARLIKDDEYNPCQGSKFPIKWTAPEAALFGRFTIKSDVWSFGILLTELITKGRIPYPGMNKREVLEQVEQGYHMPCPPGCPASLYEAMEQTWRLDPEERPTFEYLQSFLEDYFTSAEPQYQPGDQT
Sequence of each individual kinase of the panel (Homo sapiens, UniProt P54762) (P54762 18-984 limits assumed): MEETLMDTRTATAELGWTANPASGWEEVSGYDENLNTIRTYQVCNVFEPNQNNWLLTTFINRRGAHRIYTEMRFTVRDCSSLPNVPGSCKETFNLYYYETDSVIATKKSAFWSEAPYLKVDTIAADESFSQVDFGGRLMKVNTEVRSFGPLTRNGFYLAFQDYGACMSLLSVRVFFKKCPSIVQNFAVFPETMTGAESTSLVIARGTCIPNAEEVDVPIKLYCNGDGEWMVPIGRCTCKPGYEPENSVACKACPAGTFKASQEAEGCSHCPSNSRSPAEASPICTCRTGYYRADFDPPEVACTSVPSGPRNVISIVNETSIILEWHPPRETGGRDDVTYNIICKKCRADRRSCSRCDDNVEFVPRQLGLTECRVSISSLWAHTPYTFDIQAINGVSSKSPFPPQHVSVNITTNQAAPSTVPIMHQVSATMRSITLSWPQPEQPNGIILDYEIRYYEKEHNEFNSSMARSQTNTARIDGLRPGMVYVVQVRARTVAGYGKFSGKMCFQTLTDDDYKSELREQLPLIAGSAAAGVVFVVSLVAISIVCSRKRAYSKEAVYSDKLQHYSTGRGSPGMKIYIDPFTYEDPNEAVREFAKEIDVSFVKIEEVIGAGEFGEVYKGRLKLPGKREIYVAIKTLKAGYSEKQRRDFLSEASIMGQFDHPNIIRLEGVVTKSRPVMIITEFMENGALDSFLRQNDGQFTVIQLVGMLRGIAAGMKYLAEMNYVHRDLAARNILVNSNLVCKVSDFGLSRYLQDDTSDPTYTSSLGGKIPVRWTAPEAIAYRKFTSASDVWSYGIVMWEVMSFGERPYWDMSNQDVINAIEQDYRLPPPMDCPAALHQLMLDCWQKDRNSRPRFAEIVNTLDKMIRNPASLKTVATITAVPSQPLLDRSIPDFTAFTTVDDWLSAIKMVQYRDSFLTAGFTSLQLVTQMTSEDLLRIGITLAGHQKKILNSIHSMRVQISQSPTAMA
Sequence of each individual kinase of the panel (Mus musculus, UniProt P47809) (P47809 2-397 limits assumed): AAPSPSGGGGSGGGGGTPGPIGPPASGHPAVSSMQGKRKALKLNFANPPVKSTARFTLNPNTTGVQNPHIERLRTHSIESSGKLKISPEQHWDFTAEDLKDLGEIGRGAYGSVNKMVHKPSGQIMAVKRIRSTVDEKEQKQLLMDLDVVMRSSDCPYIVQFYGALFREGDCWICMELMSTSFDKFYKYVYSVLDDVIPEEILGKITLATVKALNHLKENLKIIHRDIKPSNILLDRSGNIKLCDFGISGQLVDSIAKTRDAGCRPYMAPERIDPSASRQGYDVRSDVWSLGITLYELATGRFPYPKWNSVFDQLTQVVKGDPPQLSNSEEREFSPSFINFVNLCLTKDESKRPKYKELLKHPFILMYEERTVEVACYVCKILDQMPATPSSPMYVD

C#Cc1cccc(Nc2nc3cc(C(=O)O)ccc3c3cncnc23)c1 [drawing 1135]
IKK beta percentage of activity [1]: 5%
MUSK percentage of activity [2]: −6%
p38-delta percentage of activity [3]: −1%
FGR percentage of activity [4]: 39%
EPHA3 percentage of activity [5]: −6%
EPHB2 percentage of activity [6]: 13%
FRK percentage of activity [7]: 3%
SYK percentage of activity [8]: −9%
JNK1A1 percentage of activity [9]: −9%
GSK3A percentage of activity [10]: 51%
JNK3 percentage of activity [11]: −3%
EPHB1 percentage of activity [12]: 1%
CDK3/cyclinE percentage of activity [13]: −19%
PRKCZ percentage of activity [14]: −9%
CAMK2G percentage of activity [15]: 36%
Pyk2 percentage of activity [16]: −3%
MRCKA percentage of activity [17]: −10%
VRK2 percentage of activity [18]: −3%
HIPK1 percentage of activity [19]: 90%
DCAMKL2 percentage of activity [20]: −3%
NEK11 percentage of activity [21]: −2%
NEK7 percentage of activity [22]: −14%
SGK3 percentage of activity [23]: 2%
SLK percentage of activity [24]: −15%
SGK2 percentage of activity [25]: 2%
NEK6 percentage of activity [26]: −3%
PAK6 percentage of activity [27]: −14%
MARK1 percentage of activity [28]: 0%
MSSK1 percentage of activity [29]: −3%
MKK4(m) percentage of activity [30]: −2%
MAPK2(m) percentage of activity [31]: −6%

— patent US8168651B2, “Protein kinase modulators” (Cylene Pharmaceuticals, Inc., priority 2008, dated 2012)
